# Test results taken from patent US20130210061A1, “Method of Screening Damp-Dry Malodor Inhibitor and Method of Evaluating Damp-Dry Malodor Inhibitor” (KAO CORPORATION, priority 2010, published 2013).
# Assays:
# Assay in all cases: Example 1: quantification of 4M3H on cotton fabric with 14-methylhexadecanoic acid
# [1] = system: M. osloensis NCIMB10693; assay type: cell-based, Moraxella osloensis; settings: 100 ppm test substance; M. osloensis NCIMB10693; cotton fabric with 14-methylhexadecanoic acid; 37° C., 24 hours; vs sterilized water
# Experimental: (§1) 10 mL of methanol was added to the towel that had been left to stand still for 24 hours, and 1 mL of the methanol was mixed with 1 mL of ADAM (9-anthrydiazomethanene, manufactured by Funakoshi Corp., 0.1 w/v %). The mixture was left to stand for 60 minutes at room temperature, and thus derivatization was carried out.
# (§2) Thereafter, 10 μL of the solution was analyzed by using LC-FL (liquid chromatography apparatus: HITACHI ELITE LaChrom (trade name, manufactured by Hitachi, Ltd.), column: Lichrosphere 100 RP-8(e) (trade name, manufactured by Agilent Technologies, Inc., 5 μm×125 mm×4 mmφ), column temperature: 40° C., eluent a mixed solution of acetonitrile/water=7/3 (volume ratio), flow rate: 1.0 mL/min, detector: excitation wavelength (365 nm), measurement wavelength (412 nm)), and thereby quantification of 4M3H thus produced was carried out. In regard to the amount of production of 4M3H, a sample which produced 4M3H in an amount of more than 1 μg was rated as “[…]”; a sample which produced 4M3H in an amount of more than 0.1 μg and 1 μg or less was rated as “∘”; a sample which produced 4M3H in an amount of more than 0 μg and 0.1 μg or less was rated as “Δ”; and a sample in which no 4M3H was detected was rated as “x”.
# (§3) One platinum loop of each of Moraxella osloensis NCIMB10693, Moraxella sp. 4-1, Psychrobacter pacificensis NBRC103191, Psychrobacter glacincola NCIMB101053, Pseudomonas alcaligenes No. 41, Acinetobacter calcoaceticus HH2BD-49, Saccaromyces cerevisiae NBRC1661, Rhodotorula mucilaginosa NBRC0909 and Rhodotorula slooffiae 13c was inoculated into 5 mL of a SCD liquid medium (manufactured by Nihon Pharmaceutical Co., Ltd.), and the microbial cells were subjected to shaking culture (160 rpm) at 35° C. for 24 hours. The microbial cells obtained after culture were centrifuged (8000×g, 10 minutes), the supernatant was removed, and then the microbial cells were suspended in 5 mL of physiological saline. The suspension was centrifuged again (8000×g, 10 minutes), subsequently the supernatant was removed, and a microbial suspension was prepared by using physiological saline such that the OD600 would be 0.1.
# (§4) Furthermore, 0.1 mL each of 10-ppm or 100-ppm aqueous solutions of the compounds shown in the following Table 6 was applied on the fabric described above. As a control, a fabric on which sterilized water was applied instead of the compounds described below was also prepared.
# (§5) On a plain-woven cotton fabric prepared as described above, 0.1 mL each of the various microbial suspensions was inoculated, and the samples were left to stand still under humidified conditions at 37° C. for 24 hours and were subjected to an evaluation such as described below.
# (§6) Quantification of 4M3H was carried out by the same method as that used in Test Example 3, and by taking as a reference the 4M3H production amount of a sample on which sterilized water was applied as a test substance, the 4M3H production amounts in the case of applying other test substances were evaluated on the basis of the following criteria. • A: (4M3H production amount in the case of applying a test substance)<( 1/100 of the 4M3H production amount in the case of applying sterilized water) • B: ( 1/100 of the 4M3H production amount in the case of applying sterilized water)≦(4M3H production amount in the case of applying a test substance)<( 1/10 of the 4M3H production amount in the case of applying sterilized water) • C: ( 1/10 of the 4M3H production amount in the case of applying sterilized water)≦(4M3H production amount in the case of applying a test substance)<(4M3H production amount in the case of applying sterilized water) • D: (4M3H production amount in the case of applying sterilized water)≦(4M3H production amount in the case of applying a test substance)
# [2] = system: Moraxella sp. 4-1; assay type: cell-based; settings: 100 ppm test substance, 37° C., 24 hours, vs sterilized water
# Experimental: as §1, §2, §3, §4, §5, §6
# [3] = system: P. pacificensis NBRC103191; assay type: cell-based, Psychrobacter pacificensis; settings: 100 ppm test substance, 37° C., 24 hours, vs sterilized water
# Experimental: as §1, §2, §3, §4, §5, §6
# [4] = system: P. glacincola NBRC101053; assay type: cell-based, Psychrobacter glacincola; settings: 100 ppm test substance, 37° C., 24 hours, vs sterilized water
# Experimental: as §1, §2, §3, §4, §5, §6
# [5] = system: P. alcaligenes No. 41; assay type: cell-based, Pseudomonas alcaligenes; settings: 100 ppm test substance, 37° C., 24 hours, vs sterilized water
# Experimental: as §1, §2, §3, §4, §5, §6
# [6] = system: A. calcoaceticus HH2BD-49; assay type: cell-based, Acinetobacter calcoaceticus; settings: 100 ppm test substance, 37° C., 24 hours, vs sterilized water
# Experimental: as §1, §2, §3, §4, §5, §6
# [7] = system: S. cerevisiae NBRC1661; assay type: cell-based, Saccaromyces cerevisiae; settings: 100 ppm test substance, 37° C., 24 hours, vs sterilized water
# Experimental: as §1, §2, §3, §4, §5, §6
# [8] = system: R. muculaginosa NBRC0909; assay type: cell-based, Rhodotorula mucilaginosa; settings: 100 ppm test substance, 37° C., 24 hours, vs sterilized water
# Experimental: as §1, §2, §3, §4, §5, §6
# [9] = system: R. slooffiae 13c; assay type: cell-based, Rhodotorula slooffiae; settings: 100 ppm test substance, 37° C., 24 hours, vs sterilized water
# Experimental: as §1, §2, §3, §4, §5, §6
substance,measurement,setting,value
Alkyl benzyl dimethyl ammonium chloride,Production amount of 4M3H,[1],D ((4M3H production amount in the case of applying sterilized water)≦(4M3H production amount in the case of applying a test substance))
same,Production amount of 4M3H,[2],D ((4M3H production amount in the case of applying sterilized water)≦(4M3H production amount in the case of applying a test substance))
same,Production amount of 4M3H,[3],D ((4M3H production amount in the case of applying sterilized water)≦(4M3H production amount in the case of applying a test substance))
same,Production amount of 4M3H,[4],C (( 1/10 of the 4M3H production amount in the case of applying sterilized water)≦(4M3H production amount in the case of applying a test substance)<(4M3H production amount in the case of applying sterilized water))
same,Production amount of 4M3H,[5],D ((4M3H production amount in the case of applying sterilized water)≦(4M3H production amount in the case of applying a test substance))
same,Production amount of 4M3H,[6],D ((4M3H production amount in the case of applying sterilized water)≦(4M3H production amount in the case of applying a test substance))
same,Production amount of 4M3H,[7],C (( 1/10 of the 4M3H production amount in the case of applying sterilized water)≦(4M3H production amount in the case of applying a test substance)<(4M3H production amount in the case of applying sterilized water))
same,Production amount of 4M3H,[8],D ((4M3H production amount in the case of applying sterilized water)≦(4M3H production amount in the case of applying a test substance))
same,Production amount of 4M3H,[9],D ((4M3H production amount in the case of applying sterilized water)≦(4M3H production amount in the case of applying a test substance))
